Laboratory results reported in article PMC7806715, “Discovery of small molecules targeting the tandem tudor domain of the epigenetic factor UHRF1 using fragment-based ligand discovery” (Scientific Reports, 2021).

What was measured:
[1] = target: His-USP7-UBL1/2 (control protein) (Homo sapiens, UniProt Q93009); test: Intrinsic tryptophan fluorescence of control protein; type: binding; details: 3.2 µM protein
[2] = target: T1, His6-TTD (UHRF1 tandem Tudor domain) vs. H3K9me3 peptide (Homo sapiens, UniProt Q96T88); test: TR-FRET assay: His6-TTD interaction with H3K9me3 peptide; type: biochemical; details: protein treated with PKA and ATP 1 h at 30 °C
T1 construct: Using the isolated His6-TTD (aa 123–283) we performed a thermal shift assay; made in house; host or cells: Rosetta (DE3) E. coli, pMCSG7
T1 sequence (Q96T88 123-283): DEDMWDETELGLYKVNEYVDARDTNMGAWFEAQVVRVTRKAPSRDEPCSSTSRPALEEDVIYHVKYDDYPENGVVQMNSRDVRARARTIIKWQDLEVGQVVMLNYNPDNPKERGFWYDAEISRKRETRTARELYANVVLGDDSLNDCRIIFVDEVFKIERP
Description: Finally, the fragment library was screened using a TR-FRET assay to find inhibitors that block the interaction of His6-TTD with H3K9me3 peptide. In this assay, an anti-His6-antibody labeled with Tb cryptate binds to His6-TTD while a streptavidin-d2 acceptor binds to a biotinylated histone H3K9me3 peptide. The binding between His6-TTD and H3K9me3 peptide was measured by the ratio of 665 nm fluorescence (from the d2 acceptor) to 620 nm fluorescence (from the Tb cryptate donor) (Fig. 1D).
(§1) The fragment screen was carried out on low volume 384-well white plates (Corning 4512) and the assay was performed at room temperature. […] After 1 h of incubation, the fluorescent signals at 665 nm and 620 nm of each plate were measured by the Tecan Infinite M1000 plate reader (excitation 340 nm, 60 µs lag time, and 500 µs integration time) and the TR-FRET signal was calculated by the ratio of 665 nm/620 nm fluorescent signal. For the fragment screen, on seven of the library plates there were 32-wells of DMSO control, while there were 8-wells of DMSO control in the last plate. […] The only difference was that the final concentration of His6-TTD-PHD was 200 nM, biotin-H3K9me3 peptide was 200 nM for the His6-TTD-PHD TR-FRET assay, while the final concentration of His6-UHRF1-FL was 200 nM and biotin-H3K9me3 peptide was 100 nM for the His6-UHRF1-FL TR-FRET assay. The buffer pH was 7.5 for the His6-TTD-PHD and His6-UHRF1-FL assays.

[3] = target: T2, TTD-PHD S298D mutant vs. H3K9me3 peptide (Homo sapiens, UniProt Q96T88, S298D); test: TR-FRET assay: TTD-PHD S298D mutant binding to H3K9me3 peptide; type: biochemical; details: 2.5 mM 2,4-lutidine
T2 construct: made in house; host or cells: E. coli (host printed for TTD-PHD in general: Rosetta (DE3))
T2 sequence (Q96T88 123-366 S298D): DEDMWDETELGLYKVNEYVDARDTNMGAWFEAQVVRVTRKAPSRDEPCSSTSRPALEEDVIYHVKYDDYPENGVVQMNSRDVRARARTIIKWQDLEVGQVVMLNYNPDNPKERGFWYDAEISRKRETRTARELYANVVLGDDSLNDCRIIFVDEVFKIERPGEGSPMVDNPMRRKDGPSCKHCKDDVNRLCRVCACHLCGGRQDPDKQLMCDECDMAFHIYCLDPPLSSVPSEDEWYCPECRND
Description: as §1, with “μs” for “µs”, “His6-TTD-PHD was 200 nM, biotin-H3K9me3 peptide was 200 nM for the His6-TTD-PHD TR-FRET” left out

Sequence of His-USP7-UBL1/2 (control protein) (Q93009 560-776 limits assumed): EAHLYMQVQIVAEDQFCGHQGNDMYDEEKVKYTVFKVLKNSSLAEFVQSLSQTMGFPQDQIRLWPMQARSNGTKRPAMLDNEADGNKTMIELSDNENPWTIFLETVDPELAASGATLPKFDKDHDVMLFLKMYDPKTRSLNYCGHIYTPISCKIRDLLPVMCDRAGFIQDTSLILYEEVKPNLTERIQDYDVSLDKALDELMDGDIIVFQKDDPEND

## Cc1ccnc(C)c1 [2,4-lutidine]
[1]
  effect on tryptophan fluorescence of control protein (in words): did not inhibit
[2]
  effect of PKA treatment of His6-TTD on inhibition of H3K9me3 peptide binding (in words): no effect
[3]
  inhibition of binding to H3K9me3 peptide: 44.5%
